Measurements taken from patent US11047012B2, “Method for detecting the risk and prognosis of adult-onset Still's disease” (Taichung Veterans General Hospital, priority 2018, dated 2021).

Legend:
[1] = test system: peripheral blood mononuclear cells derived from the patients with AOSD; assay: TLR ligand stimulation of peripheral blood mononuclear cells, intracellular miR-134 by QRT-PCR; format: cell-based, human
Experimental: (§1) The miRNA expressions in a sample were detected using the TaqMan MicroRNA detection kit (Applied Biosystems, Thermo Fisher Scientific, USA) and QRT-PCR was performed in the StepOne Plus real-time PCR system. Small nuclear RNA (hereinafter referred to as RUN6) and synthetic cel-miR-39 (hereinafter referred to as cel-miR-39 cel-miR-39) were respectively used as an internal control gene in cells and plasma. The multiple expression of the target gene was obtained by calculating the average expression of the target gene relative to the internal control gene in the sample by comparative threshold cycle (Ct) method, and evaluated by 2^−ΔΔCt, where ΔΔCt is the (CtmiRNAsgene−CtRnu6/cel-miR-39) of the patient from which the average (CtmiRNAs gene−CtRnu6/cel-miR-39) of the internal control gene is subtracted.
(§2) Peripheral blood mononuclear cells, human monocyte cell line U937 (ATCC CRL1593, hereinafter referred to as U937 cell) and THP-1 cells (ATCC TIB-202) isolated from the subject were respectively cultured in RPMI medium 1640 (Gibco, Thermo Fisher Scientific, USA) supplemented with 10% fetal bovine serum, 1× non-essential amino acids, 100 unit/ml penicillin and 100 unit/ml streptomycin in 5% carbon dioxide at 37° C.
Peripheral blood mononuclear cells (5×10^5 cells) derived from the subjects were stimulated with different TLR ligands. Finally, the intracellular expression level of miR-134 was measured with the TaqMan MicroRNA test kit.
Following the process as described in Example 8, the intracellular expressions of miR-134 and IL-18BP mRNA in the TLR3 ligand-stimulated peripheral blood mononuclear cells derived from patients with AOSD and healthy subjects were detected. The correlation between the IL-18BP and IL-18 expressions and the miR-134 expression was analyzed.

THP-1 cells = assay: poly (I:C) stimulation of THP-1 cells, miR-134 expression; format: cell-based, human; conditions: 24 hours after stimulation, FIG. 5B
Experimental: as §1, §2
Further, the THP-1 cells were treated with the TLR3 ligand poly (I:C).

## polyriboinosinic:polyribocytidylic acid [poly(I:C)]
[1]; PBMC from patients with AOSD, TLR3 ligand poly(I:C) 50 μg/ml, FIG. 5A
  miR-134 expression level in the cells: 3.81±0.09 folds
[1]; TLR3 ligand-stimulated PBMC from patients with AOSD, FIG. 10A
  expression level of miR-134: increased
[1]; TLR3 ligand-stimulated PBMC from patients with AOSD, FIG. 10B
  expression level of IL-18BP mRNA: reduced
THP-1 cells
  expression of miR-134 (highest value): 1.92±0.11 folds
